Reference: US9920032B2, “Heterocyclic compounds useful as pim kinase inhibitors” (Incyte Corporation, priority 2015, dated 2018)
pIC50: −log10 of the molar value.

Tests used:
Type in all cases: biochemical
Pim-3 = Pim-3 (Homo sapiens (Human), UniProt Q86V86); assay: Pim-3 kinase assay; details: 1 mM ATP; read-out: PIM3 IC50
Summary of the method: (§1)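 Biotin-BAD peptide (0.05 μM) phosphorylated with 1 mM ATP by 2.5 pM Pim-1 or 1.25 pM Pim-3 in Tris pH 7.5/MgCl2/DTT buffer, 1 h at 25° C. EDTA stop; phospho-BAD (Ser112) antibody with streptavidin donor and Protein-A acceptor beads, 1 h dark at room temperature before AlphaScreen-type bead read.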

Pim-1 = Pim-1 (Homo sapiens (Human), UniProt P11309); assay: Pim-1 kinase assay; details: 1 mM ATP; read-out: PIM1 IC50
Pim-1, sequence (P11309 whole entry): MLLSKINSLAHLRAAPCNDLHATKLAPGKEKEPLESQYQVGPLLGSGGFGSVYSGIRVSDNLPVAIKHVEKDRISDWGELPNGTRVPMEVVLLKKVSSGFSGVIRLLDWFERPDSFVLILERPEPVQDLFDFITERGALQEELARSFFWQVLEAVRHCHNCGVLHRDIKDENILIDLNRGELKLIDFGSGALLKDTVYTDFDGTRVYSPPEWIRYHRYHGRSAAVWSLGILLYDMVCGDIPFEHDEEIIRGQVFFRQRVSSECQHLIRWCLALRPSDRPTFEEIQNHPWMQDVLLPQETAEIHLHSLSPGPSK
Summary of the method: as §1

Pim-2 = Pim-2 (Homo sapiens (Human), UniProt Q9P1W9); assay: Pim-2 kinase assay; details: 1 mM ATP; read-out: PIM2 IC50
Pim-2, sequence (Q9P1W9 whole entry): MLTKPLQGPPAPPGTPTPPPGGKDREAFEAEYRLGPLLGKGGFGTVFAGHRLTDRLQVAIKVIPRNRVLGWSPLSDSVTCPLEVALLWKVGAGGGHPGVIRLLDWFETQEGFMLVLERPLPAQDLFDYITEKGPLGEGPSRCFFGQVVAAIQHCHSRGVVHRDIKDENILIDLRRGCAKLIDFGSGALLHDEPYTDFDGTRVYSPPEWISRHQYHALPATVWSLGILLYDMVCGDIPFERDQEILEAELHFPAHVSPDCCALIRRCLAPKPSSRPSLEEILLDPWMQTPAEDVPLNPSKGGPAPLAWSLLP
Summary of the method: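 TR-FRET assay with 1 nM enzyme, 0.05 μM fluorescein-CREBtide and 1 mM ATP in Tris pH 7.5 buffer with MgCl2, DTT, BSA and Tween-20, run 2 h at 25° C. Stopped with EDTA and Tb-labelled anti-CREB pSer133 antibody, then read after 30 min at room temperature.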

SMILES | pIC50 (Pim-3) | pIC50 (Pim-1) | pIC50 (Pim-2)
CC(C)CN1CCN(c2cnc3c(C(=O)Nc4cnccc4[C@@H]4C[C@H](C)C[C@H](N)C4)ccc(F)c3c2)CC1=O [Example 117, N-(4-((1R,3S,5S)-3-Amino-5-methylcyclohexyl)pyridin-3-yl)-5-fluoro-3-(4-isobutyl-3-oxopiperazin-1-yl)quinoline-8-carboxamide] | ≥ 8.00 | ≥ 8.00 | ≥ 7.00
COC1(C)CN(c2cnc3c(C(=O)Nc4cnccc4[C@@H]4C[C@H](C)C[C@H](N)C4)ccc(F)c3c2)C1 [Example 118, N-(4-((1R,3S,5S)-3-Amino-5-methylcyclohexyl)pyridin-3-yl)-5-fluoro-3-(3-methoxy-3-methylazetidin-1-yl)quinoline-8-carboxamide] | ≥ 8.00 | ≥ 8.00 | ≥ 7.00
C[C@@H]1C[C@H](N)C[C@H](c2ccncc2NC(=O)c2ccc(F)c3cc(N4CCc5nn(C)cc5C4)cnc23)C1 [Example 119, N-(4-((1R,3S,5S)-3-Amino-5-methylcyclohexyl)pyridin-3-yl)-5-fluoro-3-(2-methyl-6,7-dihydro-2H-pyrazolo[4,3-c]pyridin-5(4H)-yl)quinoline-8-carboxamide] | ≥ 8.00 | ≥ 8.00 | ≥ 7.00
C[C@@H]1C[C@H](N)C[C@H](c2ccncc2NC(=O)c2ccc(F)c3cc(N4CCOc5cccc(F)c54)cnc23)C1 [Example 120, N-(4-((1R,3S,5S)-3-Amino-5-methylcyclohexyl)pyridin-3-yl)-5-fluoro-3-(5-fluoro-2H-benzo[b][1,4]oxazin-4(3H)-yl)quinoline-8-carboxamide] | ≥ 8.00 | ≥ 8.00 | ≥ 7.00
C[C@@H]1C[C@H](N)C[C@H](c2ccncc2NC(=O)c2ccc(F)c3cc(N4CC5(CCOCC5)C4)cnc23)C1 [Example 121, N-(4-((1R,3S,5S)-3-Amino-5-methylcyclohexyl)pyridin-3-yl)-5-fluoro-3-(7-oxa-2-azaspiro[3.5]nonan-2-yl)quinoline-8-carboxamide] | ≥ 8.00 | ≥ 8.00 | ≥ 7.00
CCOC1CN(c2cnc3c(C(=O)Nc4cnccc4[C@@H]4C[C@H](C)C[C@H](N)C4)ccc(F)c3c2)C1 [Example 122, N-(4-((1R,3S,5S)-3-Amino-5-methylcyclohexyl)pyridin-3-yl)-3-(3-ethoxyazetidin-1-yl)-5-fluoroquinoline-8-carboxamide] | ≥ 8.00 | ≥ 8.00 | ≥ 7.00
C[C@@H]1C[C@H](N)C[C@H](c2ccncc2NC(=O)c2ccc(F)c3cc(N4CC[C@H]4CO)cnc23)C1 [Example 123, N-(4-((1R,3S,5S)-3-Amino-5-methylcyclohexyl)pyridin-3-yl)-5-fluoro-3-((S)-2-(hydroxymethyl)azetidin-1-yl)quinoline-8-carboxamide] | ≥ 8.00 | ≥ 8.00 | ≥ 7.00
C[C@@H]1C[C@H](N)C[C@H](c2ccncc2NC(=O)c2ccc(F)c3cc(N4CCCN(S(C)(=O)=O)CC4)cnc23)C1 [Example 124, N-(4-((1R,3S,5S)-3-Amino-5-methylcyclohexyl)pyridin-3-yl)-5-fluoro-3-(4-(methylsulfonyl)-1,4-diazepan-1-yl)quinoline-8-carboxamide] | ≥ 8.00 | ≥ 8.00 | ≥ 7.00
C[C@@H]1C[C@H](N)C[C@H](c2ccncc2NC(=O)c2ccc(F)c3cc(Nc4ccccc4F)cnc23)C1 [Example 125, N-(4-((1R,3S,5S)-3-Amino-5-methylcyclohexyl)pyridin-3-yl)-5-fluoro-3-(2-fluorophenylamino)quinoline-8-carboxamide] | ≥ 8.00 | ≥ 8.00 | ≥ 7.00
COC(=O)N1CCCN(c2cnc3c(C(=O)Nc4cnccc4[C@@H]4C[C@H](C)C[C@H](N)C4)ccc(F)c3c2)CC1 [Example 126, Methyl 4-(8-(4-((1R,3S,5S)-3-amino-5-methylcyclohexyl)pyridin-3-ylcarbamoyl)-5-fluoroquinolin-3-yl)-1,4-diazepane-1-carboxylate] | ≥ 8.00 | ≥ 8.00 | ≥ 7.00
C[C@@H]1C[C@H](N)C[C@H](c2ccncc2NC(=O)c2ccc(F)c3cc(N4CCc5cnn(C)c5C4)cnc23)C1 [Example 127, N-(4-((1R,3S,5S)-3-Amino-5-methylcyclohexyl)pyridin-3-yl)-5-fluoro-3-(1-methyl-4,5-dihydro-1H-pyrazolo[3,4-c]pyridin-6(7H)-yl)quinoline-8-carboxamide] | ≥ 8.00 | ≥ 8.00 | ≥ 7.00
C[C@@H]1C[C@H](N)C[C@H](c2ccncc2NC(=O)c2ccc(F)c3cc(N4CCCN(C)S4(=O)=O)cnc23)C1 [Example 128, N-(4-((1R,3S,5S)-3-Amino-5-methylcyclohexyl)pyridin-3-yl)-5-fluoro-3-(6-methyl-1,1-dioxido-1,2,6-thiadiazinan-2-yl)quinoline-8-carboxamide] | ≥ 8.00 | ≥ 8.00 | ≥ 7.00
C[C@@H]1C[C@H](N)C[C@H](c2ccncc2NC(=O)c2ccc(F)c3cc(Nc4ccccc4C#N)cnc23)C1 [Example 129, N-(4-((1R,3S,5S)-3-Amino-5-methylcyclohexyl)pyridin-3-yl)-3-(2-cyanophenylamino)-5-fluoroquinoline-8-carboxamide] | ≥ 8.00 | ≥ 8.00 | 6.00 to 7.00
C[C@@H]1C[C@H](N)C[C@H](c2ccncc2NC(=O)c2ccc(F)c3cc(N4CCCc5ccccc54)cnc23)C1 [Example 130, N-(4-((1R,3S,5S)-3-Amino-5-methylcyclohexyl)pyridin-3-yl)-5′-fluoro-3,4-dihydro-2H-1,3′-biquinoline-8′-carboxamide] | ≥ 8.00 | ≥ 8.00 | 6.00 to 7.00
COC1CCN(c2cnc3c(C(=O)Nc4cnccc4[C@@H]4C[C@H](C)C[C@H](N)C4)ccc(F)c3c2)CC1 [Example 131, N-(4-((1R,3S,5S)-3-Amino-5-methylcyclohexyl)pyridin-3-yl)-5-fluoro-3-(4-methoxypiperidin-1-yl)quinoline-8-carboxamide] | ≥ 8.00 | ≥ 8.00 | 6.00 to 7.00
C[C@@H]1C[C@H](N)C[C@H](c2ccncc2NC(=O)c2ccc(F)c3cc(N4CCOC(CO)C4)cnc23)C1 (stereo partly drawn) [Example 132, N-(4-((1R,3S,5S)-3-Amino-5-methylcyclohexyl)pyridin-3-yl)-5-fluoro-3-(2-(hydroxymethyl)morpholino)quinoline-8-carboxamide] | ≥ 8.00 | ≥ 8.00 | 6.00 to 7.00
COCCN1CCN(c2cnc3c(C(=O)Nc4cnccc4[C@@H]4C[C@H](C)C[C@H](N)C4)ccc(F)c3c2)CC1=O [Example 133, N-(4-((1R,3S,5S)-3-Amino-5-methylcyclohexyl)pyridin-3-yl)-5-fluoro-3-(4-(2-methoxyethyl)-3-oxopiperazin-1-yl)quinoline-8-carboxamide] | ≥ 8.00 | ≥ 8.00 | 6.00 to 7.00
C[C@@H]1C[C@H](N)C[C@H](c2ccncc2NC(=O)c2ccc(F)c3cc(N4CCn5cnnc5C4)cnc23)C1 [Example 134, N-(4-((1R,3S,5S)-3-Amino-5-methylcyclohexyl)pyridin-3-yl)-3-(5,6-dihydro-[1,2,4]triazolo[4,3-a]pyrazin-7(8H)-yl)-5-fluoroquinoline-8-carboxamide] | ≥ 8.00 | ≥ 8.00 | 6.00 to 7.00
C[C@@H]1C[C@H](N)C[C@H](c2ccncc2NC(=O)c2ccc(F)c3cc(N4CCCN(C)C(=O)C4)cnc23)C1 [Example 135, N-(4-((1R,3S,5S)-3-Amino-5-methylcyclohexyl)pyridin-3-yl)-5-fluoro-3-(4-methyl-3-oxo-1,4-diazepan-1-yl)quinoline-8-carboxamide] | ≥ 8.00 | ≥ 8.00 | 6.00 to 7.00
C[C@@H]1C[C@H](N)C[C@H](c2ccncc2NC(=O)c2ccc(F)c3cc(N4C5CCC4CC5)cnc23)C1 [Example 136, N-(4-((1R,3S,5S)-3-Amino-5-methylcyclohexyl)pyridin-3-yl)-3-(7-azabicyclo[2.2.1]heptan-7-yl)-5-fluoroquinoline-8-carboxamide] | ≥ 8.00 | ≥ 8.00 | ≥ 7.00
C[C@@H]1C[C@H](N)C[C@H](c2ccncc2NC(=O)c2ccc(F)c3cc(N4CCCc5cccc(F)c54)cnc23)C1 [Example 137, N-(4-((1R,3S,5S)-3-Amino-5-methylcyclohexyl)pyridin-3-yl)-5′,8-difluoro-3,4-dihydro-2H-1,3′-biquinoline-8′-carboxamide] | ≥ 8.00 | ≥ 8.00 | ≥ 7.00
C[C@@H]1C[C@H](N)C[C@H](c2ccncc2NC(=O)c2ccc(F)c3cc(N4CCCS4(=O)=O)cnc23)C1 [Example 138, N-(4-((1R,3S,5S)-3-Amino-5-methylcyclohexyl)pyridin-3-yl)-3-(1,1-dioxidoisothiazolidin-2-yl)-5-fluoroquinoline-8-carboxamide] | ≥ 8.00 | ≥ 8.00 | 6.00 to 7.00
C[C@@H]1C[C@H](N)C[C@H](c2ccncc2NC(=O)c2ccc(F)c3cc(N(C)c4ncccc4OC(F)F)cnc23)C1 [Example 139, N-(4-((1R,3S,5S)-3-Amino-5-methylcyclohexyl)pyridin-3-yl)-3-((3-(difluoromethoxy)pyridin-2-yl)(methyl)amino)-5-fluoroquinoline-8-carboxamide] | ≥ 8.00 | ≥ 8.00 | ≥ 7.00
